Consider 35 compounds from US20250262201A1, “COMPOUNDS AND METHODS USEFUL FOR STABILIZING PHENYLALANINE HYDROXYLASE MUTATIONS” (Agios Pharmaceuticals, Inc., priority 2022, published 2025).

Molecules are shown by their SMILES. Read-outs that look alike come from different tables or passages of the source.

This test has as its target T1, human PAH with the R408W mutation (Homo sapiens, UniProt P00439, R408W).
T1 construct: expressed in transfected cells
T1 sequence (P00439 1-452 R408W): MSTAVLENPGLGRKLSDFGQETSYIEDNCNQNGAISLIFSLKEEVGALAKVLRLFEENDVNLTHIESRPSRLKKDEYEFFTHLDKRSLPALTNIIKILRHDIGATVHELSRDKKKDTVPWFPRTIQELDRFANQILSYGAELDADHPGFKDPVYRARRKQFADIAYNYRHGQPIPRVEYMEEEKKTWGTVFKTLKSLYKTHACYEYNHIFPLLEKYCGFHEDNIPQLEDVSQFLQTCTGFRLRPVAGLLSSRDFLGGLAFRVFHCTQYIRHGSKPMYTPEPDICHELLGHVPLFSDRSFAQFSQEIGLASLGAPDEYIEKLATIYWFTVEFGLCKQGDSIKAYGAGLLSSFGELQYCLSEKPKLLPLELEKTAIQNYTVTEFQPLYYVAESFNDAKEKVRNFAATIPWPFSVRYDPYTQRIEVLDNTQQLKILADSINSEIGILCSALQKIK
Put plainly: Cell Based Phenylalanine Flux Assay. Further details: scale not given here. The note with it: 13C-Tyrosine by LC-MS, average where tested multiple times.

Setting [1] is: A375 cells expressing human R408W PAH, 24 hrs compound incubation, read-out: AC50.
[2] abbreviates: A375 R408W cells, 24 hrs with compound, then 20 μM sepiapterin and 800 μM 13C9,15N-Phenylalanine for 4 hours, read-out: AC50.

On to `O=C(c1nnc(-c2cc[nH]n2)o1)N1CCc2[nH]cnc2C1c1ccc2ccccc2n1` (stereo in doubt) [Example 115, (R)-(5-(1H-pyrazol-3-yl)-1,3,4-oxadiazol-2-yl)(4-(quinolin-2-yl)-6,7-dihydro-1H-imidazo[4,5-c]pyridin-5(4H)-yl)methanone], for which, under setting [1], the AC50 (commonly the concentration at which the activity in the assay is half-maximal) was less than 0.5 µM. Same read-out and setting: as for `C[C@@H]1CN(C(=O)c2nnc(C(C)(C)C)o2)[C@H](c2cc3ccccc3cn2)c2nc[nH]c21` [Example 430, (5-(tert-butyl)-1,3,4-oxadiazol-2-yl)((4R,7R)-4-(isoquinolin-3-yl)-7-methyl-6,7-dihydro-1H-imidazo[4,5-c]pyridin-5(4H)-yl)methanone], the figure is less than 0.5 µM. The same measure, in the same setting: the figure for `O=C(c1cnc(-c2ccccn2)s1)N1CCc2[nH]cnc2[C@@H]1c1cc2ccccc2nn1` [Example 206, (R)-(4-(cinnolin-3-yl)-6,7-dihydro-1H-imidazo[4,5-c]pyridin-5(4H)-yl)(2-(pyridin-2-yl)thiazol-5-yl)methanone] is 1 to 5 µM; for `Cn1ccc(-c2nnc(C(=O)N3CCc4[nH]cnc4C3c3ccc4ccccc4n3)o2)n1` (stereo in doubt) [Example 86, (S)-(5-(1-methyl-1H-pyrazol-3-yl)-1,3,4-oxadiazol-2-yl)(4-(quinolin-2-yl)-6,7-dihydro-1H-imidazo[4,5-c]pyridin-5(4H)-yl)methanone] it is 1 to 5 µM; for `O=C(Cc1nc(C(F)(F)F)cs1)N1CCc2[nH]cnc2[C@H]1c1cc2ccccc2cn1` [Example 368, (R)-1-(4-(isoquinolin-3-yl)-6,7-dihydro-1H-imidazo[4,5-c]pyridin-5(4H)-yl)-2-(4-(trifluoromethyl)thiazol-2-yl)ethanone] it is less than 0.5 µM. As to `Cc1nc(C(C)(C)F)oc1C(=O)N1CCc2[nH]cnc2C1c1cc2ccccc2cn1` (centres unmarked), under setting [2], the AC50 was in the range of 1 to 5 µM.

As to `Cn1ccc(-c2nnc(C(=O)N3CCc4[nH]cnc4C3c3cc4ccccc4nn3)o2)n1` (centres unmarked), the AC50 under setting [2] lay within 1 to 5 µM. Turning to `O=C(c1cnc(-c2ccccn2)o1)N1CCc2[nH]cnc2C1c1ccc2ccccc2n1` (stereo in doubt) [Example 62, (S)-(2-(pyridin-2-yl)oxazol-5-yl)(4-(quinolin-2-yl)-6,7-dihydro-1H-imidazo[4,5-c]pyridin-5(4H)-yl)methanone], the AC50 under setting [1] was more than 5 µM.

For the compound `O=C(c1nnc(CCO)o1)N1CCc2[nH]cnc2C1c1ccc2ccccc2n1` (centres unmarked), the AC50 under setting [2] was more than 5 µM.

On to `O=C(c1cnco1)N1CCc2[nH]cnc2[C@H]1c1ccc2ccccc2c1` [Example 283, (R)-(4-(naphthalen-2-yl)-6,7-dihydro-1H-imidazo[4,5-c]pyridin-5(4H)-yl)(oxazol-5-yl)methanone], for which, under setting [1], the AC50 lay within 0.5 to 1 µM. Still for that read-out and setting: as for `Cn1cc(-c2nnc(C(=O)N3CCc4[nH]cnc4C3c3ccc4ccccc4n3)o2)cn1` (stereo in doubt) [Example 48, (S)-(5-(1-methyl-1H-pyrazol-4-yl)-1,3,4-oxadiazol-2-yl)(4-(quinolin-2-yl)-6,7-dihydro-1H-imidazo[4,5-c]pyridin-5(4H)-yl)methanone], the figure is more than 5 µM; as for `O=C(c1cnc(-c2ccccn2)s1)N1CCc2[nH]cnc2[C@H]1c1ccc2ccccc2c1` [Example 223, (R)-(4-(naphthalen-2-yl)-6,7-dihydro-1H-imidazo[4,5-c]pyridin-5(4H)-yl)(2-(pyridin-2-yl)thiazol-5-yl)methanone], 1 to 5 µM. `Cc1nc(C(C)(C)O)oc1C(=O)N1C[C@@H](C)c2[nH]cnc2[C@H]1c1cc2ccccc2cn1` [Example 392, (2-(2-hydroxypropan-2-yl)-4-methyloxazol-5-yl)((4R,7R)-4-(isoquinolin-3-yl)-7-methyl-6,7-dihydro-1H-imidazo[4,5-c]pyridin-5(4H)-yl)methanone]: the AC50 under setting [1] was 0.5 to 1 µM. For `O=C(c1nnc(N2CC(F)C2)o1)N1CCc2[nH]cnc2C1c1ncc2ccccc2n1` (centres unmarked), the AC50 under setting [2] lay in the range of 1 to 5 µM. As to `O=C(CC1(O)CCC1)N1CCc2[nH]cnc2C1c1cn2ccccc2n1` (centres unmarked), the AC50 entry (A375 R408W cells, 24 hrs with compound, then 20 μM sepiapterin and 800 μM 13C9,15N-Phenylalanine for 4 hours) is “E, E”. Take `O=C(CCc1ccc(F)cc1)N1CCc2[nH]cnc2C1c1ccc2ccccc2c1` (centres unmarked): under setting [2], the AC50 is more than 5 µM.

For the compound `O=C(c1cnn2c(Br)cccc12)N1CCc2[nH]cnc2[C@H]1c1cc2ccccc2cn1` [Example 355, (R)-(7-bromopyrazolo[1,5-a]pyridin-3-yl)(4-(isoquinolin-3-yl)-6,7-dihydro-1H-imidazo[4,5-c]pyridin-5(4H)-yl)methanone], under setting [1], the AC50 was less than 0.5 µM. Turning to `Cc1ncoc1C(=O)N1CC2(CC2)c2[nH]cnc2[C@H]1c1ccc2ccccc2n1` (single isomer, unassigned), under setting [2], the AC50 is more than 5 µM. With `CC(C)(O)c1nc(C(=O)N2CCc3[nH]cnc3[C@H]2c2cc3ccccc3cn2)no1` [Example 421, (R)-(5-(2-hydroxypropan-2-yl)-1,2,4-oxadiazol-3-yl)(4-(isoquinolin-3-yl)-6,7-dihydro-1H-imidazo[4,5-c]pyridin-5(4H)-yl)methanone], the AC50 under setting [1] fell in the range of 0.5 to 1 µM. The same measure, in the same setting: the figure for `Cc1nnc(CCC(=O)N2CCc3[nH]cnc3[C@H]2c2cc3ccccc3cn2)o1` [Example 345, (R)-1-(4-(isoquinolin-3-yl)-6,7-dihydro-1H-imidazo[4,5-c]pyridin-5(4H)-yl)-3-(5-methyl-1,3,4-oxadiazol-2-yl)propan-1-one] is 0.5 to 1 µM.

As for `O=C(c1nnc(-c2cnn(C3CCC3)c2)o1)N1CCc2[nH]cnc2[C@H]1c1cc2ccccc2cn1` [Example 449, (R)-(5-(1-cyclobutyl-1H-pyrazol-4-yl)-1,3,4-oxadiazol-2-yl)(4-(isoquinolin-3-yl)-6,7-dihydro-1H-imidazo[4,5-c]pyridin-5(4H)-yl)methanone], under setting [1], the AC50 is less than 0.5 µM. On to `CN(C)c1nnc(C(=O)N2CCc3[nH]cnc3[C@@H]2c2cc3ccccc3cn2)o1` [Example 367, (S)-(5-(dimethylamino)-1,3,4-oxadiazol-2-yl)(4-(isoquinolin-3-yl)-6,7-dihydro-1H-imidazo[4,5-c]pyridin-5(4H)-yl)methanone], for which the AC50 under setting [1] is more than 5 µM. As for `CC1CN(C(=O)c2nnc(N3CCOCC3)o2)C(c2cc3ccccc3cn2)c2nc[nH]c21` (centres unmarked), under setting [2], the AC50 was in the range of 1 to 5 µM. As for `O=C(c1cnn2cc(-c3ccccc3)ccc12)N1CCc2[nH]cnc2[C@H]1c1cc2ccccc2cn1` [Example 485, (R)-(4-(isoquinolin-3-yl)-6,7-dihydro-1H-imidazo[4,5-c]pyridin-5(4H)-yl)(6-phenylpyrazolo[1,5-a]pyridin-3-yl)methanone], the concentration at half-maximal activity (AC50) under setting [1] is less than 0.5 µM. With `O=C(c1nnc(N2CC(F)C2)o1)N1CCc2[nH]cnc2C1c1ccc2ccccc2n1` (centres unmarked), the AC50 under setting [2] was 1 to 5 µM. In the case of `Cc1nc(N)oc1C(=O)N1CCc2[nH]cnc2C1c1ccc2ccccc2n1` (centres unmarked), the AC50 under setting [2] is more than 5 µM.

For `O=C(c1ccn2ncccc12)N1CCc2[nH]cnc2C1c1ccc2ccccc2n1` (centres unmarked), under setting [2], the AC50 lay within 1 to 5 µM. As to `COCc1ncc(C(=O)N2CCc3[nH]cnc3[C@@H]2c2ccc3ccccc3n2)s1` (single isomer, unassigned), the AC50 under setting [2] was 1 to 5 µM. Take `O=C(c1nnc(NC2CC2)o1)N1CCc2[nH]cnc2[C@@H]1c1cc2ccccc2cn1` [Example 371, (S)-(5-(cyclopropylamino)-1,3,4-oxadiazol-2-yl)(4-(isoquinolin-3-yl)-6,7-dihydro-1H-imidazo[4,5-c]pyridin-5(4H)-yl)methanone]: the AC50 under setting [1] was more than 5 µM. On the same count and under the same terms, as for `Cc1nc(C(C)(C)O)oc1C(=O)N1CCc2[nH]cnc2[C@@H]1c1ccc2ccccc2n1` (single isomer, unassigned) [Example 14], the figure is more than 5 µM; as for `C[C@H]1CN(C(=O)c2nnc(-c3ccc(F)cn3)o2)[C@@H](c2cc3ccccc3cn2)c2nc[nH]c21` [Example 497, (5-(5-fluoropyridin-2-yl)-1,3,4-oxadiazol-2-yl)((4S,7S)-4-(isoquinolin-3-yl)-7-methyl-6,7-dihydro-1H-imidazo[4,5-c]pyridin-5(4H)-yl)methanone], 1 to 5 µM. For the compound `Cc1nc(N2CCC(F)CC2)oc1C(=O)N1CCc2[nH]cnc2C1c1ccc2ccccc2n1` (centres unmarked), the AC50 under setting [2] was more than 5 µM.

For `C[C@@H]1CN(C(=O)c2nnc(C(C)(C)C)o2)[C@@H](c2cc3ccccc3cn2)c2nc[nH]c21` [Example 429, (5-(tert-butyl)-1,3,4-oxadiazol-2-yl)((4S,7R)-4-(isoquinolin-3-yl)-7-methyl-6,7-dihydro-1H-imidazo[4,5-c]pyridin-5(4H)-yl)methanone], the AC50 under setting [1] fell in the range of 1 to 5 µM. On to `CC(C)(O)c1nc(C(F)F)c(C(=O)N2CCc3[nH]cnc3[C@H]2c2cc3ccccc3nn2)o1` [Example 209, (S)-(4-(cinnolin-3-yl)-6,7-dihydro-1H-imidazo[4,5-c]pyridin-5(4H)-yl)(4-(difluoromethyl)-2-(2-hydroxypropan-2-yl)oxazol-5-yl)methanone], for which the AC50 under setting [1] was less than 0.5 µM. The same measure, in the same setting: as for `Cc1ncoc1C(=O)N1CC2(CC2)c2[nH]cnc2[C@H]1c1cc2ccccc2cn1` [Example 493, (R)-(4′-(isoquinolin-3-yl)spiro[cyclopropane-1,7′-imidazo[4,5-c]pyridin]-5′(1′H,4′H,6′H)-yl)(4-methyloxazol-5-yl)methanone], the figure is less than 0.5 µM.
